Columns and labels:
rabbit eye = test: Reduction in intraocular pressure following topical ocular (corneal) insulin administration, rabbit; type: in vivo; conditions: repeated small volume applications on upper third of the cornea
Protocol: (§1) Several Insulin preparations were administered to the cornea of rats and rabbits by repeated small volume applications on the upper third of the cornea with necessary measures to minimize conjunctival absorption and drainage to the nasal cavity. Reductions in intraocular pressure ranged from 28% to 36.5% in the rabbit eye and 22% to 29% in the rat eye.

rat eye = test: Reduction in intraocular pressure following topical ocular (corneal) insulin administration, rat; type: in vivo; conditions: repeated small volume applications on upper third of the cornea
Protocol: as §1

filtering bleb = test: Success rate of filtering bleb after trabeculectomy; type: in vivo, rabbit; conditions: rabbits after trabeculectomy; daily injections to the filtering bleb
Protocol: 15 rabbits underwent trabeculectomy. Five rabbits were treated with daily insulin injections to the filtering bleb, 5 others received denaturized insulin and another 5 rabbits received same volume and same frequency of balanced salt solution. The results of successful blebs at month 4 were 4 out of 5 for the insulin group, and 2 out of 5 and 3 out of 5 for the denaturized insulin and the balanced salt solution respectively.

diabetic patients = test: Systemic insulin and intraocular pressure in humans; type: in vivo, human
Source text: Recently there is a growing worldwide trend towards appreciating the merits of insulin in the treatment of diabetic patients. Contrary to the previous practice, patient are encouraged now to switch from oral hypoglycemic treatment to insulin treatment, or even to start therapy with insulin without a period of therapy with the oral hypoglycemic agents. Twelve diabetic patients were scheduled to start insulin therapy. […] None of them had been found with diabetic retinopathy or glaucoma. The drug prescription history was reviewed, and none of the twelve patients was found with systemic therapy that can affect the intraocular pressure measurements. So far, none of them was switched to systemic therapy with drugs that can affect the intraocular pressure. Pachymetry measurements have shown stability, without correlation with the level of intraocular pressure. There was also no correlation between blood glucose levels and the intraocular pressure. The patients were followed at 2 weeks interval in first months and then once every 3 weeks. […] After 2 months reduction in intraocular pressure was higher than 15% from baseline in all cases. At the end of 3 months the reduction in intraocular pressure for all patients ranged from 24% up to 35% from baseline. This level of intraocular pressure reduction was maintained during the follow up until now.

Substance	reduction in intraocular pressure (rabbit eye)	reduction in intraocular pressure (rat eye)	successful blebs at month 4 (filtering bleb)	intraocular pressure versus baseline (diabetic patients; 1 month after starting insulin therapy, twelve diabetic patients)	reduction in intraocular pressure from baseline (diabetic patients; after 2 months of insulin therapy, all cases)
denaturized insulin: similar insulin preparation that was denaturized, used as control	no stastistically significant change	no stastistically significant change	2 out of 5		
insulin			4 out of 5	significantly lower than baseline values only in 5 patients	higher than 15%
